Structures can show the parent of a compound that is named as a salt.
Target: T1, NK1 receptor (Oryctolagus cuniculus, UniProt G1SEI7)
T1 construct: The left and right branches of the pulmonary artery are isolated from the rest of the lung tissue; from tissue; host or cells: pulmonary artery ring segments with intact endothelium, male New Zealand white rabbit (Oryctolagus cuniculus)
Test: Rabbit Pulmonary Artery: NK1 in vitro functional assay (Test C)
Format: cell-based, New Zealand white rabbit
Conditions: agonist ASMSP, read-out: pKB (-log molar KB) in Test C (converted)
Experimental: Rabbit Pulmonary Artery: NK1 in vitro functional assay (Test C)
Male New Zealand white rabbits are killed by lethal injection (Nembutal, 60 mg/kg into a cannulated ear vein). Heparin, 0.0025 ml/kg of a 1000 U/ml solution, is injected into the ear vein prior to nembutal in order to decrease blood coagulation. The left and right branches of the pulmonary artery are isolated from the rest of the lung tissue and cut in half to provide four ring segments from each animal. […] Changes in tension are measured on a Grass polygraph via Grass FT-03 force transducers. […]
Potencies of the compounds are determined by calculating the apparent dissociation constants (KB) for each concentration tested using the standard equation: […]
where dose ratio=antilog[(agonist-log molar EC50 without compound)-(agonist-log molar EC50 with compound)]. The KB values are converted to the negative logarithms and expressed as -log molar KB (i.e. pKB). […] The EC50 values are converted to negative logarithms and expressed as -log molar EC50. Maximum relaxation responses to ASMSP are determined by expressing the maximum response to the agonist as a percentage of the relaxation caused by papaverine.

T1 sequence (G1SEI7 1-407): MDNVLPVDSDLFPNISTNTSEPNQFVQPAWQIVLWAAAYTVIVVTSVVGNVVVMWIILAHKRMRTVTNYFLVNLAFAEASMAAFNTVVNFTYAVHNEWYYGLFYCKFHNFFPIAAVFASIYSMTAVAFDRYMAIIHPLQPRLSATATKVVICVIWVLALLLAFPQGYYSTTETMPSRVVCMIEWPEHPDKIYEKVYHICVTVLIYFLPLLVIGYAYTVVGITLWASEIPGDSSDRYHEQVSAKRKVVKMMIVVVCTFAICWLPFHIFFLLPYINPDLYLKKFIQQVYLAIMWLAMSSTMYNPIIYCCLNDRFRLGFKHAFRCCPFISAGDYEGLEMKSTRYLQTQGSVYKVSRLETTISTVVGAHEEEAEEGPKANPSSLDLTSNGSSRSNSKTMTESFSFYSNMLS

Compound `COc1ccccc1CC(=O)N(C)CC(c1ccc(Cl)c(Cl)c1)N1CCC(O)(c2ccccc2)CC1` (stereo not shown) [Example 2, N-[2-(3,4-Dichlorophenyl)-2-(4-hydroxy-4-phenylpiperidino)ethyl]-N-methyl-2-methoxyphenylacetamide hydrochloride salt] has a Kb of 631 nM.
